One data set has as its target P13Kγ (Homo sapiens, UniProt P48736). The experiment in a line: Z'-LYTE / Adapta biochemical kinase assay, PI3Kγ. An excerpt: (§1) The Z′-LYTE® biochemical assay employs a fluorescence-based, coupled-enzyme format and is based on the differential sensitivity of phosphorylated and non-phosphorylated peptides to proteolytic cleavage. The peptide substrate is labeled with two fluorophores—one at each end—that make up a FRET pair. In the primary reaction, the kinase transfers the gamma-phosphate of ATP to a single tyrosine, serine or threonine residue in a synthetic FRET-peptide. In the secondary reaction, a site-specific protease recognizes and cleaves non-phosphorylated FRET-peptides. Phosphorylation of FRET-peptides suppresses cleavage by the Development Reagent. […] A ratiometric method, which calculates the ratio (the Emission Ratio) of donor emission to acceptor emission after excitation of the donor fluorophore at 400 nm, is used to quantitate reaction progress.
(§2) A significant benefit of this ratiometric method for quantitating reaction progress is the elimination of well-to-well variations in FRET-peptide concentration and signal intensities. […]
(§3) Both cleaved and uncleaved FRET-peptides contribute to the fluorescence signals and therefore to the Emission Ratio. The extent of phosphorylation of the FRET-peptide can be calculated from the Emission Ratio. […]

The next data set has as its target PI3Kβ (Homo sapiens, UniProt P42338). Description: Z'-LYTE / Adapta biochemical kinase assay, PI3Kβ.
Text: as §1, §2, §3

The target of the next data set is HER2 (Homo sapiens, UniProt P04626). Description: Z'-LYTE / Adapta biochemical kinase assay, HER2.
Text: as §1, §2, §3

The target in another data set is HER4 (Homo sapiens, UniProt Q15303). Description: Z'-LYTE / Adapta biochemical kinase assay, HER4.
Text: as §1, §2, §3

The nature of data set [1]: Solubility assessment in aqueous media. It counts as physicochemical. As to conditions: kinetic from dmso stock, 25° C. As to the method: Preparation of stock solutions: The stock solutions of test compounds and control compound diclofenac were prepared in DMSO at the concentrations of 10 mM.
Procedure for solubility determination: 15 µL of stock solution (10 mM) of each sample was placed in order into their proper 96-well rack. 485 µL of (SIF, SGF, PBS 7.4, FESSIF, or FESSGF) was added into each vial of the cap-less Solubility Sample plate. The assay was performed in duplicate. Add one stir stick to each vial and seal using a molded PTFE/Silicone plug. […] After completion of the 2 hours, plugs were removed and the stir sticks were removed using a big magnet, the samples from the Solubility Sample plate were transferred into the filter plate. Using the Vacuum Manifold, all the samples were filtered. Aliquot of 5 µL and 5 µL DMSO were taken from the filtrate followed by addition of 490 µL of a mixture of H2O and acetonitrile containing internal standard (1:1). A certain proportion of ultrapure water was used to dilute the diluent according to the peak shape. The dilution factor was changed according to the solubility values and the LC-MS signal response.
Preparation of 300 µM standards (STD): From the 10 mM DMSO STD plate, 6 µL was transferred into the remaining empty plate, and then 194 µL of DMSO was added to that plate to have a STD concentration of 300 µM. From the 300 µM DMSO STD plate, 5 µL DMSO STD and 5 µL SIF was transferred into the remaining empty plate, and then 490 µL of a mixture of H2O and acetonitrile containing internal standard (1:1) was added to that plate to have a final STD concentration of 3 µM. […]
Procedure for sample analysis: The plate was placed into the well plate autosampler. The samples were evaluated by LC-MS/MS analysis.
Data analysis: All calculations were carried out using Microsoft Excel. The filtrate was analyzed and quantified against a standard of known concentration using LC coupled with mass spectral peak identification and quantitation. Solubility values of the test compound and control compound were calculated as follows: […]

Another data set deals with P13Kδ (Homo sapiens, UniProt O00329). The experiment in a line: Z'-LYTE / Adapta biochemical kinase assay, PI3Kδ.
Text: as §1, §2, §3

≈ marks a conversion by molar mass, not a printed value.

P13Kγ, sequence (P48736 whole entry, stated change not applied): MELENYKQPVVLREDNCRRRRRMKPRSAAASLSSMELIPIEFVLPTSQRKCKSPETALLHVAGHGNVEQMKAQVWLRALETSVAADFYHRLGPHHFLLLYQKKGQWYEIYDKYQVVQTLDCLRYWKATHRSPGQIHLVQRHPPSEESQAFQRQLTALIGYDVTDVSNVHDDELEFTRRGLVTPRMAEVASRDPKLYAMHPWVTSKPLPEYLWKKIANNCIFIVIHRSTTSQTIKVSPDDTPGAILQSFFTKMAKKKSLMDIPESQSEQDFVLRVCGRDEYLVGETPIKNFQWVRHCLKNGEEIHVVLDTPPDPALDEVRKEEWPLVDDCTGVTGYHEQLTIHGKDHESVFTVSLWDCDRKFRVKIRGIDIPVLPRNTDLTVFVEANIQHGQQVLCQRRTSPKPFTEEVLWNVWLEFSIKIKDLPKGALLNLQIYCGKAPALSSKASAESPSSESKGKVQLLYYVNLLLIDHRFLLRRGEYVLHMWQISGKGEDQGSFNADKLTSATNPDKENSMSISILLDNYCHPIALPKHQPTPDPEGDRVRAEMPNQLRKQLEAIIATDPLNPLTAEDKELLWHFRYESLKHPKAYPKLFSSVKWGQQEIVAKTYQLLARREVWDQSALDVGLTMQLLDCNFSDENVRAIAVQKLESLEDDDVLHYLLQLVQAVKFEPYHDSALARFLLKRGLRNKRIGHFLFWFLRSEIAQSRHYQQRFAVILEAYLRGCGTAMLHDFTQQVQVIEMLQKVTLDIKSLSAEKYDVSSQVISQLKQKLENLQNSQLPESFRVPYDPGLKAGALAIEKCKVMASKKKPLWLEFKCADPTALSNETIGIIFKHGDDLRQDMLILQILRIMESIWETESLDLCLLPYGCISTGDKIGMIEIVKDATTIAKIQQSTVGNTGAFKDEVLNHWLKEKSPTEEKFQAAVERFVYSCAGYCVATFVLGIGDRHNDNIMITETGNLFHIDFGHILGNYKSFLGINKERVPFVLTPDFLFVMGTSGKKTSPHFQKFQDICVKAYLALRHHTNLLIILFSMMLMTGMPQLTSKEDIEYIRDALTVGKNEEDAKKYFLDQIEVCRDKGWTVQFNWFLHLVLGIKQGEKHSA
P13Kδ, sequence (O00329 whole entry, stated change not applied): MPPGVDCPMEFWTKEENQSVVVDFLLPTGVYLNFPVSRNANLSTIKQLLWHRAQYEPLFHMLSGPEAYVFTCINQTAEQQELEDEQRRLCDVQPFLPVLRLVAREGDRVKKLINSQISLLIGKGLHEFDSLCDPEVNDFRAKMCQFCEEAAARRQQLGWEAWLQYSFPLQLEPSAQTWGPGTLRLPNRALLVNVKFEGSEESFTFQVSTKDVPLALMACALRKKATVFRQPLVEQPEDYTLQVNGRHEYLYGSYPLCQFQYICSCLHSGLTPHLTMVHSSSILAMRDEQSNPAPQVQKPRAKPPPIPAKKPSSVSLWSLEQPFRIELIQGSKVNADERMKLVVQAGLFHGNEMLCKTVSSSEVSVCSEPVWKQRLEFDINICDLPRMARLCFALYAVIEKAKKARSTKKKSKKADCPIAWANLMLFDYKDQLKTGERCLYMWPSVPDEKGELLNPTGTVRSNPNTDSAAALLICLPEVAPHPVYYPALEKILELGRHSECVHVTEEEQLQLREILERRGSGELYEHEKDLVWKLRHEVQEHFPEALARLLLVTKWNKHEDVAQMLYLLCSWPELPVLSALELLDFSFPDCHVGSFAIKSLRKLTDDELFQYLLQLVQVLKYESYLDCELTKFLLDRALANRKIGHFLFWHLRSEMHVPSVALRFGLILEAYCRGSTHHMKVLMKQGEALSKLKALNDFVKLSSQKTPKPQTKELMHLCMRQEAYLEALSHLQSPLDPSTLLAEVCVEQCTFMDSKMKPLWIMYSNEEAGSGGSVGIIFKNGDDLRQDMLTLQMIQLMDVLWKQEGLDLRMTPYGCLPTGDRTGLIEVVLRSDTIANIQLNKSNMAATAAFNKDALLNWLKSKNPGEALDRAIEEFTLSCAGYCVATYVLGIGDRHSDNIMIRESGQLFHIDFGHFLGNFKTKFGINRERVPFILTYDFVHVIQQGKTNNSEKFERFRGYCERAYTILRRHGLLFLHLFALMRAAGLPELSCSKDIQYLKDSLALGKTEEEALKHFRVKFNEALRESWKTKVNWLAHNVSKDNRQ
P13Kδ, sequence (P27986 2-724 partner limits assumed): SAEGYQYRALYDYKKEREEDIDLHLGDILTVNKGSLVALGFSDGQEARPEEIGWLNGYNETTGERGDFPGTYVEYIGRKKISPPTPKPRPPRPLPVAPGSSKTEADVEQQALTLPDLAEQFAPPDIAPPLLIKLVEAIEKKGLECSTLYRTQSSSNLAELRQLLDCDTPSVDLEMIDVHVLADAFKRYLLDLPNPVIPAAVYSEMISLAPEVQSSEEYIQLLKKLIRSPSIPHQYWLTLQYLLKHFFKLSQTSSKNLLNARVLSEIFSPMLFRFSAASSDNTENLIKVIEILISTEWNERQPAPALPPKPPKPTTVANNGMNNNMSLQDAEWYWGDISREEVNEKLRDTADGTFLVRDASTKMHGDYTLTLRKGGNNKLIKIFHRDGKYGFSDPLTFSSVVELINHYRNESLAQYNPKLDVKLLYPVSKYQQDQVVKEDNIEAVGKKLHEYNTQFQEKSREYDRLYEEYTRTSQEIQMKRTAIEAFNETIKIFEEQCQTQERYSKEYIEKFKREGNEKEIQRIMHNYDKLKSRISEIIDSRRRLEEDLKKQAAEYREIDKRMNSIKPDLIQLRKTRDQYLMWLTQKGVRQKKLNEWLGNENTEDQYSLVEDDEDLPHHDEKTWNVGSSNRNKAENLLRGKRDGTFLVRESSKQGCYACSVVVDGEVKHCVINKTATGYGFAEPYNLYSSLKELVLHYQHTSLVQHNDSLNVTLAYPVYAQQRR
HER4, sequence (Q15303 26-1308): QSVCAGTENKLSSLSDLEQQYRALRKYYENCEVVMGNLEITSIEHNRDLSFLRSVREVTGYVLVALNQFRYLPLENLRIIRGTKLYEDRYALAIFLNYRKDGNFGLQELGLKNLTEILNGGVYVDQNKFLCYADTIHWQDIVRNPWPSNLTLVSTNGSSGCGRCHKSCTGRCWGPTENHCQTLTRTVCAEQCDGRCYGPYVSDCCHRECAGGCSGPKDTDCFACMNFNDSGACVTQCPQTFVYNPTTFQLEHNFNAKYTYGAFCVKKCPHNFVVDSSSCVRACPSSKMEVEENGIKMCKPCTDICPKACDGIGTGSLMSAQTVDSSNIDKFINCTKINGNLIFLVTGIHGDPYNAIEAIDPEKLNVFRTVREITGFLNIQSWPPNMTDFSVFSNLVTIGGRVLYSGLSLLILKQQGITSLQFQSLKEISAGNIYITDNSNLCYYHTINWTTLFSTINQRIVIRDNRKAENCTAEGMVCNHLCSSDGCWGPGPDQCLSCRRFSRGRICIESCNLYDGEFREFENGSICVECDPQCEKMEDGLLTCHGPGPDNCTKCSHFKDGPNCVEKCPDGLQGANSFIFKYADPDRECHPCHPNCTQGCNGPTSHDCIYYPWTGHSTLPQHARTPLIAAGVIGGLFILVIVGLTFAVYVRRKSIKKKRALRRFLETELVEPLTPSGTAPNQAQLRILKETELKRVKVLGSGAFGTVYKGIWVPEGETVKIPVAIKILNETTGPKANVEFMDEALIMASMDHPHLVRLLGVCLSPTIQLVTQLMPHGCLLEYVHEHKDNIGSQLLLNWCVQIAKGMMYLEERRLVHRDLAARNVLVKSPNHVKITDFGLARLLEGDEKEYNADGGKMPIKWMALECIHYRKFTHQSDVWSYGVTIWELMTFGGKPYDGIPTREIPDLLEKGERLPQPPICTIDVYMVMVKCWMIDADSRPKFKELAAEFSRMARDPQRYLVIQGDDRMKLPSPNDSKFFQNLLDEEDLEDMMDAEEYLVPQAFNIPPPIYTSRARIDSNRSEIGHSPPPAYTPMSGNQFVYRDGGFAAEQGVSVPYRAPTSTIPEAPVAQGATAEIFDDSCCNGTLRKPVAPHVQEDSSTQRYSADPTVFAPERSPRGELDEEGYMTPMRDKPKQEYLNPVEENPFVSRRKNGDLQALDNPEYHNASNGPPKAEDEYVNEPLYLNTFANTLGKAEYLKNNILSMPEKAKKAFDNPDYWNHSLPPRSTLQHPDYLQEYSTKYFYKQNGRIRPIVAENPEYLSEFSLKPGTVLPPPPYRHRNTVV

For `CS(=O)(=O)Nc1cc(-c2ccc3ncnc(Nc4cccc(Cl)c4F)c3c2)cnc1Cl` [Compound 6, N-[2-chloro-5-[4-(3-chloro-2-fluoro-anilino)quinazolin-6-yl]-3-pyridyl] methanesulfonamide], the IC50 (as a rule, the concentration that inhibits the measured activity by half) against P13Kγ was no more than 2 nM; at PI3Kβ it was 20 to 200 nM; on HER2, greater than 200 nM; against HER4, greater than 200 nM; at P13Kδ, no more than 2 nM. The solubility (commonly the concentration that dissolves in the medium under given conditions) at 2 h in data set [1] (PBS pH 7.4, aqueous buffer, pH 7.4 Buffer) is 5 to 100 µM (≈ 2.39 to 47.8 µg/mL); in data set [1] (fassgf or other biorelevant, Simulated Intestinal Fluid (SIF)), 5 to 100 µM (≈ 2.39 to 47.8 µg/mL); in data set [1] (Simulated Gastric Fluid (SGF)), greater than 200 µM.

Source of the values: US20230133958A1, “COMPOUNDS USEFUL IN MODULATING EGFR AND PI3K” (Mekanistic Therapeutics LLC, priority 2021, published 2023).
